Laboratory results from patent US20030109418A1, “Methods for identifying compounds for inhibition of neoplastic lesions, and pharmaceutical compositions containing such compounds” (priority 1999, published 2003).
Counter-ions that a name gives are not always drawn.

How the values were obtained:
[1] = Seven-day dose-range finding study in rats; assay type: in vivo, rat
28-day study in rats = assay type: in vivo, rat
SW-620 = test: Growth inhibition, neutral red assay, SW-620; assay type: cell-based, human; conditions: free base, five days
Procedure: (§1) Compound I's activity is not confined to activity against colon cancer cell lines or animal models of colon cancer. It has a broad range of anti-neoplastic effects in various neoplastic cell lines. Various types of human cancer cell lines were propagated under sterile conditions in RPMI 1640 medium with 10% fetal bovine serum, 2 mM L-glutamine and sodium bicarbonate. To determine growth inhibitory effects of Compound I, cells were seeded in 96-well plates at a density of 1000 cells per well. Twenty-four hours after plating, the cells were dosed with various concentrations of the free base of Compound I solubilized in DMSO (final concentration 0.1%). The effect of the drug on tumor cell growth was determined using the neutral red cytotoxicity assay following five days of continuous treatment. Neutral red is a dye that is selectively taken up by viable cells by an ATP-dependent transport mechanism.

MDA-MB-231 = test: Growth inhibition, neutral red assay, MDA-MB-231; assay type: cell-based, human; conditions: free base, five days
Procedure: as §1

K-562 = test: Growth inhibition, neutral red assay, K-562; assay type: cell-based; conditions: Homo sapiens, K562; HCl salt
Procedure: as §1

[2] = system: panel of cultured human cell lines derived from various tissue origins; test: Growth inhibition, neutral red assay, whole panel; assay type: cell-based; conditions: all cell lines of the panel, read-out: GI50 value calculated for all cell lines
Procedure: as §1

[3] = rat, in vivo
[4] = system: KNRK, Kidney (ras transformed); test: Growth inhibition, SRB assay, KNRK; assay type: cell-based
[5] = system: PKG activity in SW480 colon cancer cells; test: PKG assay of lysates of drug-treated SW480 cells; assay type: cell-based, human; conditions: SW480 treated 48 hrs; exisulind 200, 400, 600 μM; E4021 0.1, 1, 10 μM; with and without added cGMP
Excerpt: That sequence is known and described in the literature below. […] One way to bind the PDE5 sequences to a solid phase is to express those sequences as a fusion protein of the PDE5 sequence and one member of an amino acid binding pair, and chemically link the other member of that amino acid binding pair to a solid phase (e.g., beads). One binding pair that can be used is glutathione S-transferase (“GST”) and glutathione (“GSH”), with the GST being expressed as a fusion protein with the PDE5 sequence described above, and the GSH bound covalently to the solid phase. In this fashion, the PDE5 sequence/GST fusion protein can be bound to a solid phase simply by passing a solution containing the fusion protein over the solid phase, as described below.
To assay a liquid sample believed to contain PKG using the PDE5-bound solid phase described above, the sample and the solid phase are mixed with phosphorylation buffer containing ^32P-γ-ATP. The solution is incubated for 30 minutes at 30° C. to allow for phosphorylation of the PDE5 sequence by PKG to occur, if PKG is present. […]
For each control or drug cell lysate sample to be evaluated, the reaction is started by adding phosphorylation buffer containing 10 μCi ^32P-γ-ATP solution (200 μM ATP, 4.5 mM MgCl; 5 mM KH2PO4; 5 mM K2HPO4;) to each mixture. […]

[6] = system: PKG activity in HCT116 colon cancer cells; test: PKG assay of lysates of drug-treated HCT116 cells; assay type: cell-based
Excerpt: To test the effect of cGMP-specific PDE inhibition on neoplasia containing the β-catenin mutation, HCT116 colon cancer cells were employed. HCT116 is known to contain the β-catenin mutation, but is known not to contain the APC mutation.
The same procedure is used to grow the HCT116 cells as is used in the SW480 procedure described above. In this experiment, only exisulind and controls were used.

[7] = Safety evaluation in exisulind clinical trials; assay type: in vivo
Procedure: In these exisulind trials and several others involving the drug in other indications, safety was evaluated by monitoring adverse events (AEs), clinical laboratory tests (hematology, serum chemistry, and urinalysis), vital signs (blood pressure, pulse rate, respiratory rate, temperature, and weight), physical examination, and upper endoscopy.

## CC1=C(CC(=O)NCc2ccccc2)c2cc(F)ccc2/C1=C\c1ccncc1 [Compound I, (Z)-5-fluoro-2-methyl-(4-pyridylidene)-3-(N-benzyl)indenylacetamide hydrochloride]
[1]; 50 mg/kg/day
  signs of toxicity, seven-day study: no observable signs of toxicity
[1]; 500 mg/kg/day
  treatment-related effects, seven-day study: increase in absolute and relative liver weights in female rats
[1]; 2000 mg/kg/day
  effects, seven-day study: labored breathing and/or abnormal respiratory sounds, decreased weights gains and food consumption in male rats, and increased liver weights in female rats
28-day study in rats; rats, 2000 mg/kg/day
  organ weight data, 28-day study: statistically significant increase in liver weights
28-day study in rats; rats, 50, 500 and 2000 mg/kg/day
  clinical observations, 28-day study: no abnormal clinical observations
SW-620; Homo sapiens, SW-620, 120 h
  GI50: 1.7 µM
SW-620
  GI90 μM, SW-620: 2.5 µM
MDA-MB-231; Homo sapiens, MDA-MB-231, 120 h
  GI50: 1.8 µM
MDA-MB-231
  GI90 μM, MDA-MB-231: 77.6 µM
K-562
  GI50: 1.8 µM
[2]
  GI50: 1000 to 2000 nM
[3]
  signs of toxicity, single oral doses: no observable signs of toxicity
[3]; ip, 1000 mg/kg
  findings after single intraperitoneal dose: reduced body weight gain, with mesenteric adhesions seen in some animals
[3]; po, 4000 mg/kg
  body weight gain, single oral dose: body weight gains were slightly reduced

## CC1=C(CC(=O)O)c2cc(F)ccc2/C1=C\c1ccc(S(C)(=O)=O)cc1 [Exisulind, 5-fluoro-2-methyl-1-(p-methylsulfonylbenzylidene)-3-indenylacetic acid]
[4]
  IC50: 240 µM
[5]
  PKG activity relative to control: causes PKG activity to increase in a dose-dependent manner
[6]
  PKG activation relative to controls: yielded PKG that was phosphorylated to a greater extent than the corresponding controls
[7]; APC patients
  apoptosis rates in paired biopsies of polyp and normal colonic tissues: increased apoptosis rates in polyp, but not normal colonic tissues
[7]; human, in vivo
  toxicities in clinical trials: did not demonstrate any blood dyscrasia, dose-limiting vomiting, or neurological or renal toxicities
[7]; patients with intact colons
  maximum tolerated dose (MTD): 400 mg
[7]; patients with subtotal colectomy
  maximum tolerated dose (MTD): 600 mg
[7]; pediatric patients
  maximum tolerated dose (MTD): 350 mg
